Laboratory results reported in a melting point compilation (Tetko et al.; mined from patent text by program, amines drawn as free bases though some values may be those of a salt).

Compound	melting point [°C]
N#Cc1c2c(c3c(c1N1CCCC1)CCc1ccccc1-3)-c1ccccc1C2	220 to 222
COc1ccc(C2=C(c3ccc(O)cc3)CCCc3cc(OCc4ccccc4)ccc32)cc1	173 to 175
CCC(Nc1ccncc1)c1ccccc1 (stereo unspecified)	190 to 192
CC(C)=CCOc1c(I)cc(C(C)O)nc1Cl (stereo unspecified)	80 to 81
Cc1cc2c(s1)S(=O)(=O)N=C(NC(C)C)N2	272 to 273
COC(=O)/C(=C/C=C/c1cc2ccccc2o1)OC	108
COc1c(Cl)cc(NC(=O)OCCCl)c(OC)c1[N+](=O)[O-]	93
CCN(CC)CCNS(=O)(=O)c1ccc(Nc2cnnc3cc(Cl)ccc23)cc1	175 to 176
COC(=O)c1ncc(O)c2c1[nH]c1ccccc12	241 to 242
COc1ccc(-c2cc3cc(OC)cc(C=NO)c3o2)cc1	185 to 187
O=C1OC(c2ccc(F)cc2)c2ncccc21 (stereo unspecified)	116 to 118
Nc1ccc(Sc2ccccc2)cc1Br	61 to 63
CC(C)(Cc1ccccc1)C(NC(=O)c1cc(Cl)cc(Cl)c1)Nc1c(Nc2cccnc2)c(=O)c1=O (stereo unspecified)	197 to 198
Oc1cc(O)c2ccccc2n1	350 to 355
O=C(CCc1ccccc1)N[C@H](Cc1ccc(C(F)(F)F)cc1)[C@@H](O)c1ccccc1 (racemic)	147 to 148
Cc1c(-c2ccncc2)nc2n(c1=O)CCCN2CC(=O)c1ccccc1	190 to 192
CC(=O)Cn1c(Oc2ccc(-n3c4ncccc4n4ccnc34)cc2)nc2ccccc21	189 to 192
Cc1c(Cl)cc(C(=O)O)c(Cl)c1N	218 to 221
Cn1ncc(C(=O)N2CCOCC2)c1C(=O)Nc1ccn2nc(-c3ccccc3)nc2c1	203 to 207
CC[C@@H](C(C)C)[C@H](O)[C@H](O)[C@@H](C)[C@H]1CC[C@H]2[C@@H]3CCC4=CC(=O)CC[C@]4(C)[C@H]3CC[C@]12C	192 to 194
CC(=O)c1ccc(-c2nccn2C)cc1	88 to 93
C#Cc1c(C(C)C)nc(-c2ccccc2)n1-c1ccc(F)cc1	148 to 150
COC1CCN(S(=O)(=O)c2ccc([N+](=O)[O-])cc2C(F)(F)F)CC1	141 to 143
O=S(=O)(NCCc1ccc(OCc2nnn[nH]2)cc1)c1ccc(Cl)cc1	136
COC(=O)c1ccc2cc(CCc3cc4ccc(C(=O)OC)cc4o3)oc2c1	175 to 177
C=C(c1ccc(N2CCCC2)cc1)c1ccc(N2CCCC2)cc1	211

Compound	melting point [°C]
CNC(=O)c1cccc(-c2cccc3cc(Cc4cccc(C(F)(F)F)c4)sc23)c1	104 to 106
COc1ccc2c(c1)cc(C(=O)O)n2-c1ccccc1	197 to 204
CCN(CC)C(=O)n1c(C(=O)C(C)(C)c2ccc(Cl)cc2)cc2cc(OC)ccc21	172 to 175
Cc1nc2c(-c3cccc(N4CCN(CCO)CC4)c3)cnn2c(N)c1-c1ccc(F)c(Cl)c1	104 to 107
CCOC(=O)c1ccc(NC(=O)C(c2ccc(Cl)cc2)c2ccc(Cl)cc2)cc1	171 to 172
CCN(CC)C(=O)n1ccc(S(=O)(=O)c2ccc(Br)cc2C(F)(F)F)n1	62 to 65
CCOCCOc1ccc(C(O)CNC(C)CCc2ccccc2)cc1C(=O)OC (stereo unspecified)	100 to 101
CC(=O)N[C@H]1CC[C@H](c2ccc(S(N)(=O)=O)cc2)CC1	268 to 269
CCCN(CC1CC1)C(=O)c1c2c(nn1C)N(c1c(C)cc(C)cc1Cl)CCC2	121 to 122
COC(=O)C(O)c1ccccc1[N+](=O)[O-] (stereo unspecified)	69 to 71
N#Cc1cc(-c2ccncc2)c[nH]c1=O	> 300
O=S(=O)(c1ccc(Cl)cc1)N1CCCC1c1ccc(F)c(F)c1 (racemic)	121
O=C(/C=C/c1ccc(N2CCOCC2)cc1)CC(=O)/C=C/c1ccc2cc[nH]c2c1	93 to 97
CS(=O)(=O)c1ccccc1NC(=O)c1ccccc1O	142 to 145
Nc1ccccc1NC(=O)c1cc2cc(OCc3ccccn3)ccc2s1	205 to 207
CC(=O)Nc1cccc(-c2c(C)c(NC(=O)CC(C)(C)C)c(C)c3c2OCC3c2ccc(C(C)C)cc2)n1 (stereo unspecified)	205 to 208
CC(C)(C)OC(=O)CON=C(C(=O)OC(c1ccccc1)c1ccccc1)c1ncsn1	139 to 141
O=C(O)CCCNc1ccnn1-c1c(Cl)cc(C(F)(F)F)cc1Cl	160 to 162
CC(C)c1ccc(-c2ccnc(-c3cccc(C(=O)O)c3)c2)cc1	233 to 234
Nc1ccc(Br)cc1CC1NC(=O)NC1=O (stereo unspecified)	> 310
Cc1noc(NS(=O)(=O)c2cc(Cl)ccc2Cl)c1Br	148 to 150
Nc1ncc(-c2cccc3ccccc23)c(N)n1	171 to 173
CCCCc1ncc(CNC(Cc2ccccc2)C(=O)O)n1Cc1ccccc1Cl (stereo unspecified)	141 to 143
Cc1cc(C(N)=O)ncc1C(c1c(F)ccc(F)c1F)S(=O)(=O)CCC(C)(C)C (stereo unspecified)	143 to 144
CCON=C(CC)C1=C(O)CC(c2ccc(NS(C)(=O)=O)cc2)CC1=O (stereo unspecified)	115 to 116
O=C1SCC(O)=C1Cc1ccc2ccccc2c1	238 to 239

Compound	melting point [°C]
NC(=O)NCC1CCCc2cc(NS(=O)(=O)c3cccc(F)c3)ccc21 (stereo unspecified)	162 to 163
CCOC(=O)c1cn2c3c(cc(CN4CCOCC4)cc3c1=O)OC(c1ccccc1)C2 (stereo unspecified)	213 to 215
Cc1c(C(=O)Nc2ccc(OCC(C)C)c(C#N)c2)cnn1-c1ccc(F)cc1	177 to 178
O=C(O)c1cc(=O)c2cc(F)ccc2[nH]1	206 to 210
CC(=O)c1ccc2cc(N3CCNCC3)ccc2c1	170 to 172
Nc1nc2ccc3ccccc3c2s1	258 to 260
O=C1CCC(c2ccccc2)(c2ccccc2)[C@@H]2CN(C(=O)Cc3ccccc3C(F)(F)F)C[C@H]12 (racemic)	207
O=c1cc(CO)oc2cc(OCCCCl)ccc12	110 to 112
Clc1ccc(OCc2ccccc2)c(C=Cc2ccccn2)c1	105 to 106
O=[N+]([O-])c1cc(C(F)(F)F)ccc1Sc1ccc(O)cc1	131 to 134
CC(C)c1cc(C(C)C)c(C=CC(=O)c2ccc(C(C)C)c(OS(N)(=O)=O)c2C(C)C)c(C(C)C)c1	144 to 148
O=c1[nH]c2cc(-c3ccccc3)nnc2c2ccccc12	340 to 342
O=C1OC(CO)CN1c1ccc(O)cc1 (stereo unspecified)	189
Cc1cc(OCc2ccccc2)c2cc(C(N)=O)[nH]c2c1	185 to 187
CC(C)(C)NCC(O)COc1ccccc1-c1ccc(=S)[nH]n1 (stereo unspecified)	186 to 189
CCCCCCCCCCc1nnn(CC(=O)Nc2c(C(C)C)cccc2C(C)C)n1	108 to 110
CSCCc1nc(OCC(F)(F)F)c(C#N)c(N2CCc3ccccc3CC2)n1	97 to 100
Cc1c(N2CCC(O)CC2)c(F)cc2c(=O)c(C(=O)O)cn(C3CC3)c12	234 to 236
COc1ccc(-c2nc(-c3[nH]cc(C)c3C)[nH]c2-c2ccc(OC)cc2)cc1	134
CN(CCCC(C(N)=O)(c1ccccc1)c1ccccc1)CCc1ccc(CN)cc1	139 to 142
O=c1[nH]c2cc(Cl)ccc2c(O)c1-c1ccc2c(c1)OCO2	> 350
CCCc1c(OCCOCCOc2ccc3ccc(OCC(=O)OC)cc3c2C(C)=O)ccc(C(C)=O)c1O	89 to 90
CC(C)Nc1cccnc1N1CCN(C(=O)c2ccc(C(=O)NCCN3CCCCC3)cc2)CC1	106 to 107
C=C(C)COc1ccc(C(=O)C=Cc2ccc(N(C)C)cc2)c(O)c1	85 to 87
COC(=O)COc1c(Cl)cc(C(=O)CBr)cc1Cl	89 to 90
COc1ccc(C(=O)c2c(N)sc(C)c2C)cc1OC	172 to 173

Compound	melting point [°C]
COC(=O)Cn1c(=O)[nH]c(=O)c2ccc(Cl)cc21	255 to 258
CCSc1cc2ccccc2c(=O)n1Cc1ccccc1	79 to 80
O=C(CCl)NCC1CCCCC1	85 to 86
CCCCC[C@H]1CC[C@H](c2nc(Cl)c(OC)c(Cl)n2)CC1	29.5 to 30.4
CCCCCC(C)C(C)c1cc(O)c2c(c1)OC(C)(C)C1=C2CN(CC(=O)Nc2ccccc2)CC1 (stereo unspecified)	125 to 127
C=CCN(C)CCNc1ccnc2cc(Cl)ccc12	91 to 93
COC(=O)[C@H](Cc1ccc(CC(=O)O)c(C2SCCS2)c1)NC(C)=O	113 to 119
COc1ccc(-c2ccc3[nH]c4c(c3c2)CCN(C(=O)c2ccccc2)CC4)cc1	140 to 145
Cc1cc([N+](=O)[O-])sc1C(=O)c1sc(Nc2ccc(S(N)(=O)=O)cc2)nc1N	268 to 269
Cc1c(C(N)=O)nc2c(=O)[nH]c3cc(C(F)(F)F)ccc3n12	> 250
CC(N)CN(C)C(=O)c1ccccc1 (stereo unspecified)	102
Nc1ccc(Cl)cc1C(=O)NCCCn1ccnc1	155 to 157
CCCOC(Nc1ccccc1)(OCCC)c1ccnc(C(=O)c2ccc(C)cc2)c1	120 to 121
CCOCc1nc2c(N)nc(C)c(C)c2n1NC1CCOCC1	120 to 122
COc1cccc(C(C)N(C)CCCOc2ccc(S(=O)(=O)c3c(C(C)C)cn4ccccc34)cc2)c1 (stereo unspecified)	111 to 113
O=c1c(-c2ccccc2)c(Cn2ccnc2)oc2ccccc12	168 to 171
COc1ccc(N2CCN(c3ccc(N4C(=O)N(C(C)C(C)=O)C(C)(C)C4=O)cc3)CC2)cc1 (stereo unspecified)	226
O=C1NCc2c1cc1ccc3c(c1c2-c1ccncc1)OCO3	316 to 319
CCCCCCCCCCCCCCCCCCNC(=O)OCCN1CCCC1	57
O=c1[nH]c2c(n3ccnc13)Cc1ccccc1-2	350
COn1c(C(C)C)nc2c(N)nc3ccccc3c21	217 to 219
CS(=O)(=O)Nc1ccc(F)c(C(=O)C[N+](=O)[O-])c1	174 to 176
O=C(c1ccc(F)cc1)C1CCN(S(=O)(=O)c2ccccc2)CC1	106 to 109
